Source: ChEMBL document CHEMBL4706626, “Triterpenoid-Mediated Inhibition of Virus-Host Interaction: Is Now the Time for Discovering Viral Entry/Release Inhibitors from Nature?” (J Med Chem, 2020)

What was measured:
[1] = system: HEK293T; experiment: Inhibition of Ebola virus pseudoparticle GP HR2 domain-mediated viral entry into human 293T cells at 1 uM incubated for 72 hrs by Bright-Glo reagent based assay relative to control; assay type: cell-based; conditions: Ebolavirus
[2] = system: Human immunodeficiency virus 1; experiment: Antiviral activity against HIV-1 NL4-3; assay type: functional, organism-based; conditions: Human immunodeficiency virus 1, NL4-3
[3] = system: Human immunodeficiency virus 1; experiment: Antiviral activity against HIV-1 harboring V307A mutant; assay type: functional, organism-based
[4] = Inhibition of Zaire Ebola virus pseudoparticle GP HR2 domain-mediated virus-host fusion in human 293T cells incubated for 72 hrs by Bright-Glo reagent based assay; assay type: cell-based, Zaire ebolavirus; conditions: hek293t
[5] = Inhibition of Zaire Ebola virus pseudoparticle GP HR2 domain-mediated virus-host fusion in human A549 cells incubated for 72 hrs by Bright-Glo reagent based assay; assay type: cell-based, Zaire ebolavirus
[6] = Binding affinity to EBOV envelope glycoprotein HR2 domain by surface plasmon resonance; parameters: species or system Ebolavirus
[7] = system: Human coronavirus 229E; experiment: Antiviral activity against HCoV-229E infected in human MRC5 cells incubated for 2 hrs by XTT method; assay type: functional, organism-based; conditions: MRC5, 2 h
[8] = Selectivity index, ratio of CC50 for human MRC5 cells to EC50 for HCoV-229E infected in human MRC5 cells; assay type: toxicity, cell-based; conditions: MRC5 cells (CC50) and HCoV-229E-infected MRC5 cells (EC50)
[9] = system: Hepatitis C virus; experiment: Antiviral activity against HCV pseudoparticle infected in Huh-7 cells assessed as inhibition of viral entry pretreated for 30 mins with cells followed by viral infection for 4 hrs and subsequent compound wash out and measured after 72 hrs by Bright-Glo reagent based luciferase assay; assay type: functional, organism-based, Hepacivirus hominis
[10] = Antiviral activity against Ebola virus Makona infected in human HeLa cells pretreated for 2 hrs followed by viral infection for 48 hrs by Alexa Fluor 488 staining based assay; assay type: functional, cell-based; conditions: Zaire ebolavirus
[11] = Antiviral activity against Ebola virus Makona infected in human foreskin fibroblast pretreated for 2 hrs followed by viral infection for 48 hrs by Alexa Fluor 488 staining based assay; assay type: functional, cell-based; conditions: Zaire ebolavirus
[12] = Binding affinity to EBOV envelope glycoprotein HR2 domain assessed as reduction in HR1-HR2 interaction by measuring Kd for HR1-HR2 affinity by surface plasmon resonance (reference value: 1 uM); parameters: species or system Ebolavirus
[13] = system: Human immunodeficiency virus 1; experiment: Anti-HIV-1 activity against HIV1 NL4-3 infected in human HeLa expressing CD4/CCR5/beta-gal assessed as inhibition of syncytium formation incubated for 2 days by MAGI assay; assay type: functional, organism-based; conditions: Human immunodeficiency virus 1, NL4-3, HeLa, 48 h
[14] = system: Human immunodeficiency virus 1; experiment: Anti-HIV-1 activity against HIV1 IIIB/LAI infected in human CEM 4 cells assessed as reduction in virus-indued cytopathic effect treated for 1 hr with cells followed by viral infection and measured after 5 days; assay type: functional, organism-based; conditions: Human immunodeficiency virus 1, IIIB/LAI
[15] = system: Human immunodeficiency virus 1; experiment: Anti-HIV-1 activity against HIV1 IIIB infected in human H9 cells assessed as in p24 antigen production by sandwich ELISA; assay type: functional, organism-based; conditions: Human immunodeficiency virus 1, IIIB
[16] = target: Albumin (Homo sapiens, UniProt P02768); experiment: Protein binding in human serum albumin; assay type: ADME; conditions: read-out: PB
[17] = Aqueous solubility of compound; assay type: physicochemical

Chain of Albumin (P02768 whole entry): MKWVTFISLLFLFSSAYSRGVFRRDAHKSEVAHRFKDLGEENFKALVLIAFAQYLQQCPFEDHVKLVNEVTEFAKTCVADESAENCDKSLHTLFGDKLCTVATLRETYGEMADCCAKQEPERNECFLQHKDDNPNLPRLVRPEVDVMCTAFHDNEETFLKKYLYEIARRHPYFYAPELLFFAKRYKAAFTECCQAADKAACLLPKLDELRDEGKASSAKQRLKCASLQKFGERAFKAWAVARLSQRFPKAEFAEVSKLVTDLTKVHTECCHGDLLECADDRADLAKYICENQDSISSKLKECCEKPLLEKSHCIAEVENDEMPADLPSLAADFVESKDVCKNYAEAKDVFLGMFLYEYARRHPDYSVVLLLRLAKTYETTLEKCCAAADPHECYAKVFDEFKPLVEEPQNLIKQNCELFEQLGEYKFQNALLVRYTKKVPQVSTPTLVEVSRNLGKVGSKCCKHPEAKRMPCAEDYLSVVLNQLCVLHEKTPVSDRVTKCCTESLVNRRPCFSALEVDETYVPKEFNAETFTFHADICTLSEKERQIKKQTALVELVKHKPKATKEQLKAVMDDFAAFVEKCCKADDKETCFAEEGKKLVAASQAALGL

SMILES: CC(=O)OC[C@H]1O[C@@H](NC(=O)[C@]23CCC(C)(C)C[C@H]2C2=CC[C@@H]4[C@@]5(C)CC[C@H](O)C(C)(C)[C@@H]5CC[C@@]4(C)[C@]2(C)C[C@H]3O)[C@H](OC(C)=O)[C@@H](OC(C)=O)[C@H]1OC(C)=O
- inhibition [1]: 22%

SMILES: CC(=O)OC[C@H]1O[C@@H](NC(=O)[C@]23CCC(C)(C)C[C@H]2C2=CC[C@@H]4[C@@]5(C)CC[C@H](O)C(C)(C)[C@@H]5CC[C@@]4(C)[C@]2(C)CC3)[C@H](OC(C)=O)[C@@H](OC(C)=O)[C@H]1OC(C)=O
- inhibition [1]: 32%

SMILES: CC1(C)CC[C@]2(C(=O)O)CC[C@]3(C)C(=CC[C@@H]4[C@@]5(C)CCC(=O)C(C)(C)[C@@H]5CC[C@]43C)[C@@H]2C1
- inhibition [1]: 25%

SMILES: CC(C)C1=C2[C@H]3CC[C@@H]4[C@@]5(C)CC[C@H](OC(=O)CC(C)(C)C(=O)O)C(C)(C)[C@@H]5CC[C@@]4(C)[C@]3(C)CC[C@@]2([C@@H](O)CN(CCN(C)C)Cc2ccc(Cl)cc2)CC1=O [GSK2838232]
- IC50 [2]: 0.81 nM
- IC50 [3]: 0.71 nM

SMILES: CC(=O)OC[C@H]1O[C@@H](NC(=O)[C@]23CCC(C)(C)C[C@H]2C2=CC[C@@H]4[C@@]5(C)CCC(=O)C(C)(C)[C@@H]5CC[C@@]4(C)[C@]2(C)CC3)[C@H](OC(C)=O)[C@@H](OC(C)=O)[C@H]1OC(C)=O
- IC50 [4]: 467 nM
- inhibition [1]: 93%
- IC50 [5]: 467 nM

SMILES: CC1(C)CC[C@]2(C(=O)N[C@@H]3O[C@H](CO)[C@H](O)[C@H](O)[C@H]3O)CC[C@]3(C)C(=CC[C@@H]4[C@@]5(C)CCC(=O)C(C)(C)[C@@H]5CC[C@]43C)[C@@H]2C1
- inhibition [1]: 7%

SMILES: CC1(C)CC[C@]2(C(=O)N[C@@H]3O[C@H](CO)[C@H](O)[C@H](O)[C@H]3O)[C@H](O)C[C@]3(C)C(=CC[C@@H]4[C@@]5(C)CC[C@H](O)C(C)(C)[C@@H]5CC[C@]43C)[C@@H]2C1
- inhibition [1]: 16%

SMILES: C#CCN(CCCC1(C)N=N1)C(=O)[C@]12CCC(C)(C)C[C@H]1C1=CC[C@@H]3[C@@]4(C)CCC(=O)C(C)(C)[C@@H]4CC[C@@]3(C)[C@]1(C)CC2=O
- Kd [6]: 16800 nM

SMILES: CC1(C)CCC2C(=O)C[C@]3(C)C(=CC[C@@H]4[C@@]5(C)CCC(=O)C(C)(C)[C@@H]5CC[C@]43C)[C@@H]2C1 (stereo partly drawn)
- IC50 [4]: 1350 nM
- inhibition [1]: 52%
- IC50 [5]: 1350 nM

SMILES: C[C@H]1O[C@@](O)(O[C@H]2CC[C@@]3(C)[C@@H](CC[C@]4(C)[C@@H]3C=CC3=C5CC(C)(C)CC[C@]5(CO)[C@H](O)C[C@]34C)[C@]2(C)CO)[C@H](O)[C@@H](O[C@@H]2O[C@H](CO)[C@@H](O)[C@H](O)[C@H]2O)[C@H]1O
- IC50 [7]: 1700 nM
- selectivity ratio [8]: 222

SMILES: CC1(C)CC[C@]2(C(=O)O)CC[C@]3(C)C(=CC[C@@H]4[C@@]5(C)CC[C@H](O)C(C)(C)[C@@H]5CC[C@]43C)[C@@H]2C1 [OLEANOLIC_ACID]
- IC50 [9]: 10000 nM
- inhibition [1]: 1%

SMILES: CC(=O)OC[C@H]1O[C@@H](NC(=O)[C@]23CCC(C)(C)C[C@H]2C2=CC[C@@H]4[C@@]5(C)CCC(=O)C(C)(C)[C@@H]5CC[C@@]4(C)[C@]2(C)CC3=O)[C@H](OC(C)=O)[C@@H](OC(C)=O)[C@H]1OC(C)=O
- IC50 [4]: 59.2 nM
- EC50 [10]: 460 nM
- EC50 [11]: 990 nM
- inhibition [1]: 99%
- Kd [6]: 5400 nM
- Kd [12]: 23400 nM
- IC50 [5]: 59.2 nM

SMILES: CC(C)C[C@H](NC(=O)CCCCCCCNC(=O)[C@]12CC[C@@H](C(C)C)[C@@H]1[C@H]1CC[C@@H]3[C@@]4(C)CC[C@H](O)C(C)(C)[C@@H]4CC[C@@]3(C)[C@]1(C)CC2)[C@H](O)CC(=O)O
- EC50 [13]: 330 nM

SMILES: CC1(C)CC[C@]2(C(=O)N[C@@H]3O[C@H](CO)[C@H](O)[C@H](O)[C@H]3O)C(=O)C[C@]3(C)C(=CC[C@@H]4[C@@]5(C)CCC(=O)C(C)(C)[C@@H]5CC[C@]43C)[C@@H]2C1
- inhibition [1]: 6%

SMILES: C=C(C)[C@@H]1CC[C@]2(C(=O)NCCCCCCCCCCC(=O)O)CC[C@]3(C)[C@H](CC[C@@H]4[C@@]5(C)CC[C@H](O)C(C)(C)[C@@H]5CC[C@]43C)[C@@H]12
- IC50 [14]: 230 nM

SMILES: CC(=O)OC[C@H]1O[C@@H](NC(=O)[C@]23CCC(C)(C)C[C@H]2C2=CC[C@@H]4[C@@]5(C)CC[C@H](O)C(C)(C)[C@@H]5CC[C@@]4(C)[C@]2(C)C[C@H]3O)[C@@H](OC(C)=O)[C@@H](OC(C)=O)[C@@H]1OC(C)=O
- inhibition [1]: 17%

SMILES: C=C(C)[C@@H]1CC[C@]2(C(=O)NCCCCCCCC(=O)N[C@@H](CC(C)C)[C@H](O)CC(=O)O)CC[C@]3(C)[C@H](CC[C@@H]4[C@@]5(C)CC[C@H](O)C(C)(C)[C@@H]5CC[C@]43C)[C@@H]12
- EC50 [13]: 400 nM

SMILES: CC(=O)OC[C@H]1O[C@@H](NC(=O)[C@]23CCC(C)(C)C[C@H]2C2=CC[C@@H]4[C@@]5(C)CC[C@H](O)C(C)(C)[C@@H]5CC[C@@]4(C)[C@]2(C)CC3)[C@@H](OC(C)=O)[C@@H](OC(C)=O)[C@@H]1OC(C)=O
- inhibition [1]: -4%

SMILES: CC1(C)CC[C@]2(C(=O)N[C@@H]3O[C@H](CO)[C@@H](O)[C@H](O)[C@@H]3O)CC[C@]3(C)C(=CC[C@@H]4[C@@]5(C)CC[C@H](O)C(C)(C)[C@@H]5CC[C@]43C)[C@@H]2C1
- inhibition [1]: -5%

SMILES: CC1(C)CC[C@]2(C(=O)O)[C@H](O)C[C@]3(C)C(=CC[C@@H]4[C@@]5(C)CC[C@H](O)C(C)(C)[C@@H]5CC[C@]43C)[C@@H]2C1
- inhibition [1]: 2%

SMILES: C=C(C)[C@@H]1CC[C@]2(C(=O)NCCCCCCCC(=O)N[C@@H](CC(C)C)[C@@H](O)CC(=O)O)CC[C@]3(C)[C@H](CC[C@@H]4[C@@]5(C)CC[C@H](O)C(C)(C)[C@@H]5CC[C@]43C)[C@@H]12
- IC50 [15]: 30 nM

SMILES: CC1(C)CC[C@]2(C(=O)N[C@@H]3O[C@H](CO)[C@@H](O)[C@H](O)[C@@H]3O)[C@H](O)C[C@]3(C)C(=CC[C@@H]4[C@@]5(C)CC[C@H](O)C(C)(C)[C@@H]5CC[C@]43C)[C@@H]2C1
- inhibition [1]: 3%

SMILES: CC1(C)CC[C@]2(C(=O)N[C@@H]3O[C@H](CO)[C@H](O)[C@H](O)[C@H]3O)CC[C@]3(C)C(=CC[C@@H]4[C@@]5(C)CC[C@H](O)C(C)(C)[C@@H]5CC[C@]43C)[C@@H]2C1
- inhibition [1]: 16%

SMILES: C=C(C)[C@@H]1CC[C@]2(C(=O)O)CC[C@]3(C)[C@H](CC[C@@H]4[C@@]5(C)CC[C@H](OC(=O)CC(C)(C)C(=O)O)C(C)(C)[C@@H]5CC[C@]43C)[C@@H]12 [BEVIRIMAT]
- fraction unbound [16]: < 0.01
- solubility [17]: < 1 µg/mL
